From patent US20130064815A1, “INDUCING APOPTOSIS IN QUIESCENT CELLS” (THE TRUSTEES OF PRINCETON UNIVERSITY, priority 2011, published 2013)

How the values were obtained:
[1] = test system: primary human fibroblasts; experiment: caspase 3/7 activity apoptosis assay (ApoTox-Glo) in proliferating and quiescent fibroblasts; type: cell-based; conditions: for effect on MG132-induced apoptosis: 2-ME with increasing MG132
Experimental: Referring to FIG. 2A, primary human fibroblasts were tested either in a proliferating state or after being induced into quiescence. Quiescence may be induced by either contact inhibition or serum starvation. Cells were treated with DHEA for four days, with bafilomycin added on the fourth day. Apoptosis was assessed based on the activity of caspase 3/7 for a fluorogenic substrate.
PPP inhibition and apoptosis analysis: Apoptosis was measured based on the levels of caspase 3/7 released into the media using the ApoTox-Glo Triplex Assay according to the manufacturer's instructions (Promega Corp., Madison, Wis.). Cells were plated in triplicate at 10,000 cells per well in white-walled, clear-bottom 96-well plates (Costar, Corning Life Sciences, Lowell, Mass.). For contact inhibition, cells were plated 7 days prior to the start of treatment, for serum starvation cells were plated 4 days prior to treatment and switched to 0.1% serum media for the remaining 3 days, while proliferating cells were plated the day prior to the start of treatment. […] Cells in serum starvation conditions were incubated in 0.1% serum during treatment as well. The apoptosis reagent was added at 100 μl per well and incubated for 1 h prior to reading. Luminescence was read from the top using a Synergy-2 plate reader (Biotek, Winooski, Vt.). Luminescence data were normalized to the vehicle only condition.
Apoptosis induction was assessed by monitoring caspase 3/7 activity using a luminescent caspase substrate. This assay is optimized for high-throughput screening in 96-well plates and allows multiple concentrations and combination of drugs to be tested in triplicate at different time points. […] Therefore, this assay was used to compare proliferating and serum-starved cells only.

tumor cells = conditions: intraperitoneal injection of tumor cells; cited from earlier work
LC3-II = LC3-II immunoblot (autophagy / autophagic flux); type: cell-based, human
Experimental: (§1) The levels of autophagy components—Atg5/Atg12, Atg7, Atg3, and LC3-I and LC3-II—were monitored in proliferating and contact-inhibited fibroblasts using immunoblotting (FIG. 21A). As a positive control for autophagy induction, samples of cells in each cell cycle state were also incubated in Kreb's Ringer Bicarbonate solution (KRB), a protocol that induces autophagy through amino acid starvation and elimination of other nutrients except glucose. Levels of Atg5/Atg12, Atg7, and LC3-II were elevated in all of the amino acid starvation and contact-inhibition states as compared to the proliferating state (FIG. 21A). Atg3 was induced in all quiescent states compared with proliferating states, including amino acid starvation. In order to differentiate whether the high levels of autophagy proteins resulted from a blockade of autophagy degradation or active flux through the pathway, we monitored the levels of LC3-II in proliferating and 7 dCI fibroblasts in the presence of bafilomycin A1 (Baf-A1). Baf-A1 is a vacuolar-type H^+-ATPase inhibitor that prevents autophagosome fusion with the lysosome due to an increase in lysosomal pH. […] This finding is consistent with active autophagic flux in quiescent fibroblasts
In addition to its role in providing amino acids and energy under starvation conditions, autophagy is involved in maintenance of cellular homeostasis and resistance to tumorigenesis through degradation of old or damaged proteins and entire organelles. It was hypothesized that autophagy in contact-inhibited cells could function to degrade old and/or damaged proteins that would otherwise accumulate in the cytoplasm due to lack of cell division as a mechanism for dilution of these proteins. Oxidation of proteins causes the formation of carbonyl groups on amino acids, and carbonylation can disrupt protein function. To monitor the extent of protein oxidation in proliferating and contact-inhibited fibroblasts, the protein carbonyl groups were derivatized using 2,4-dinitrophenylhydrazine (DNP), and monitored using immunoblotting with an antibody that recognizes the covalently added DNP. The levels of oxidized proteins in proliferating and 7 dCI fibroblasts were monitored in cells that were either competent to perform autophagy (control), or were stably expressing an shRNA against the essential autophagy components Atg5 (sh-Atg5) or Atg7 (sh-Atg7), which are known to represent autophagy-defective phenotypes in other model systems. […] In contact-inhibited fibroblasts, in contrast, the levels of oxidized proteins increased 1.5-fold±0.1 in 7 dCI sh-Atg5 fibroblasts as compared to vector control counterparts (p=0.009) (FIG. 22B). […]
To test this hypothesis, the levels of an autophagy-specific form of the LC3 protein, LC3 II, were monitored compared to a housekeeping protein (Klionsky et al., 2008, “Guidelines for the use and interpretation of assays for monitoring autophagy in higher eukaryotes,” Autophagy 4, 151-175, which is incorporated herein by reference as if fully set forth). […]
We observed an increase in the ratio of LC3 II to GAPDH in response to MG132 treatment for cells in proliferating, contact-inhibited and serum-starved states (FIG. 25B). To test whether the high levels of LC3 II in quiescent cells in response to MG132 treatment result from a blockade of autophagy degradation or from active flux through the pathway, LC3 II levels were monitored in proliferating and quiescent fibroblasts treated with MG132 in the presence or absence of bafilomycin A1 (Baf). […]

p62/SQSTM1 = experiment: p62 immunoblot (autophagic flux); type: cell-based, human; conditions: contact-inhibited (7 dCI) fibroblasts vs proliferating or vehicle/non-treated controls
Experimental: as §1

breast cancer cell lines = conditions: cited from earlier work
[2] = test system: skin papillomas and carcinomas; conditions: cited from earlier work; for skin papilloma development: mouse
[3] = test system: four day serum starved fibroblasts; experiment: induction of apoptosis in quiescent fibroblasts by DHEA and/or autophagy inhibitor combined with proteasome inhibitors; type: cell-based, human; conditions: proteasome inhibitor alone; four day serum starved fibroblasts
Experimental: Referring to FIG. 17, the effect of treatment using DHEA and/or an autophagy inhibitor combined with proteasome inhibitors on apoptosis in quiescent cells was analyzed.
In this experiment, the proteasome inhibitor, bortezomib, was used in varying concentrations with DHEA during a 48 hour treatment.

[4] = test system: neoplasms, lymphoblastic lymphoma; conditions: p53-deficient mouse; cited from earlier work
[5] = test system: proliferating and quiescent fibroblasts; experiment: annexin V / PI flow cytometry after proteasome inhibition; type: cell-based, human; conditions: 24 hours
Experimental: To elucidate the responses of proliferating and quiescent fibroblasts to proteasome inhibition, the effects of known proteasome inhibitors on proliferating and quiescent fibroblasts were examined.
At the highest dose (10 μM), approximately 50% of proliferating cells were apoptotic (FIG. 24A-lower right (Q4), upper right (Q2), and upper left (Q1) quadrants represent early apoptosis, late apoptosis, and very late apoptosis or necrosis, respectively). In comparison, quiescent fibroblasts were largely unaffected by MG132 treatment, showing far lower levels of apoptosis.

COc1cc2c(cc1O)CC[C@@H]1[C@@H]2CC[C@]2(C)[C@@H](O)CC[C@@H]12 [2-ME, 2-methoxyestradiol]
effect on MG132-induced apoptosis ([1]; proliferating fibroblasts): little effect
effect on MG132-induced apoptosis ([1]; serum-starved fibroblasts): sensitized

Cc1ncc(C[n+]2csc(CCO)c2C)c(=O)[nH]1 [oxythiamine]
tumor growth (tumor cells): inhibit tumor growth

CCN(CCO)CCCC(C)Nc1ccnc2cc(Cl)ccc12 (stereo not drawn) [hydroxychloroquine]
induction of apoptosis ([1]; serum starved fibroblasts, FIG. 2B): induction of apoptosis

CO/C1=C\C(C)=C\[C@@H](C)[C@@H](O)[C@@H](C)C/C(C)=C/C=C/[C@H](OC)[C@@H]([C@@H](C)[C@@H](O)[C@H](C)[C@@]2(O)C[C@@H](O)[C@H](C)[C@@H](C(C)C)O2)OC1=O [Baf, bafilomycin A1]
effect on MG132-induced caspase 3/7 activity ([1]; 100 nM Baf, proliferating cells, 24 hours post treatment): slight reduction
effect on MG132-induced apoptosis (caspase 3/7) ([1]; 100 nM Baf, proliferating fibroblasts, 48 hours post treatment): no significant effect
effect on MG132-induced apoptosis (caspase 3/7) ([1]; 100 nM Baf, serum-starved fibroblasts): strongly enhanced
effect on bortezomib-induced caspase 3/7 activity ([1]; proliferating fibroblasts, 24 hours post treatment): reduced
effect on bortezomib-induced caspase 3/7 activity ([1]; proliferating fibroblasts, after 48 hours): little effect
induction of apoptosis in the presence of Baf vs MG132 alone ([1]; serum-starved fibroblasts, 48 hours, 10 μM MG132): more than doubled
LC3 II to GAPDH ratio vs MG132 alone (LC3-II; Baf combined with MG132, serum-starved cells): did not change
LC3 II to GAPDH ratio vs MG132 alone (LC3-II; Baf in conjunction with MG132, proliferating and contact-inhibited cells): further increase
ratio of LC3 II to GAPDH (LC3-II; Baf-treated proliferating and quiescent cells): increase
levels of LC3-II (LC3-II; contact-inhibited (7 dCI) fibroblasts vs proliferating or vehicle/non-treated controls): further increase
levels of p62/SQSTM1 (p62/SQSTM1): further increase

FC(F)(F)c1ccc2c(N3CCN(CCCNc4ccnc5cc(Cl)ccc45)CC3)ccnc2c1 [7-chloro-N-(3-(4-(7-trifluoromethyl)quinolin-4-yl)piperazin-1-yl)propyl)quinolin-4-amine]
antiproliferative effects (breast cancer cell lines): very effective

C[C@H]1CC[C@@]2(C)C(=CC[C@@H]3[C@@H]2CC[C@]2(C)C(=O)CC[C@@H]32)C1 [3-β-methylandrost-5-en-17-one]
skin papilloma development [2]: inhibits skin papilloma development
development of skin papillomas and carcinomas ([2]; topical 7,12-dimethylbenz(a)anthracene (DMBA), mice): even more potent chemopreventive effect

CC(C)C[C@H](NC(=O)[C@H](Cc1ccccc1)NC(=O)c1cnccn1)B(O)O [bortezomib]
induction of apoptosis (caspase 3/7) ([1]; bortezomib, serum-starved compared to proliferating fibroblasts): relatively low
apoptotic induction [3]: did not result in apoptotic induction

C[C@]12CCCCC1=CC[C@@H]1[C@@H]2CC[C@]2(C)C(=O)[C@H](F)C[C@@H]12 [16α-fluoro-5-androsten-17-one]
skin papilloma development [2]: effective in inhibiting skin papilloma development
death due to neoplasms [4]: delay death due to neoplasms

FC(F)(F)c1ccc2c(NCCCN3CCN(c4ccnc5cc(Cl)ccc45)CC3)ccnc2c1 [{3-[4-(7-chloro-quinolin-4-yl)-piperazin-1-yl]-propyl}-(7-rifluoromethyl-quinolin-4-yl)-amine]
antiproliferative effects (breast cancer cell lines): very effective

C[C@]12CCCC[C@@H]1CC[C@@H]1[C@@H]2CC[C@]2(C)C(=O)[C@H](F)C[C@@H]12 [16a-fluoro-5a-androstan-17-one]
skin papilloma development [2]: effective in inhibiting skin papilloma development

CC[C@H](C)[C@H](NC(=O)[C@H]([C@@H](C)CC)N(C)C(C)=O)C(=O)N[C@H](C(=O)N[C@@H](CC(C)C)C(=O)[C@@]1(C)CO1)[C@@H](C)O [epoxomicin]
reduction of viability of proliferating cells ([5]; 1 μM): ~50%
proliferating cell viability (fraction PI negative) ([5]; proliferating cells): statistically significant, dose-dependent decrease
quiescent cell viability ([5]; quiescent cells, up to 10 μM MG132, 1 μM epoxomicin): maintained high viability
